These results are taken from patent publication US11370784B2 (MISSION THERAPEUTICS LIMITED, priority 2016, dated 2022).

USP30, sequence (Q70CQ3 57-517): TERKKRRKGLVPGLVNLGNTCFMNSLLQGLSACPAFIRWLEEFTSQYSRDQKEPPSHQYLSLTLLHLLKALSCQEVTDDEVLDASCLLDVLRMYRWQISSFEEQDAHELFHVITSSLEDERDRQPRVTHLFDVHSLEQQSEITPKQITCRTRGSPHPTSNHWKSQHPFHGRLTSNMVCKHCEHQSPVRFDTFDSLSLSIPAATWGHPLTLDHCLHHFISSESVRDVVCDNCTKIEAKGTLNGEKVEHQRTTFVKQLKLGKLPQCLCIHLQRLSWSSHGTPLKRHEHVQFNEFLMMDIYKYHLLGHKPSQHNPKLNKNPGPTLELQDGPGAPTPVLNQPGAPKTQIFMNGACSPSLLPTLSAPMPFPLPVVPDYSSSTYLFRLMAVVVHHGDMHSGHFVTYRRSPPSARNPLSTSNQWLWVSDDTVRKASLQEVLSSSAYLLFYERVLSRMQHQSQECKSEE

The target in this assay is USP30 (Homo sapiens (Human), UniProt Q70CQ3). As to the kind of experiment: USP30 biochemical IC50 assay. The following applies: fluorescence polarisation, TAMRA labelled peptide linked to ubiquitin as substrate; enzyme and compound incubated 30 min at room temp; read-out: IC50 range. The protocol:
Reactions were performed in duplicate in black 384 well plates (small volume, Greiner 784076) in a final reaction volume of 21 μl. Either 1 μl of 50% DMSO or diluted compound was added to the plate. USP30 was diluted in reaction buffer (40 mM Tris, pH 7.5, 0.005% Tween 20, 0.5 mg/ml BSA, 5 mM beta-mercaptoethanol) to the equivalent of 0.05 μl/well and 10 μl of diluted USP30 was added to the compound. Enzyme and compound were incubated for 30 min at room temp. Reactions were initiated by the addition of 50 nM of TAMRA labelled peptide linked to ubiquitin via an iso-peptide bond as fluorescence polarisation substrate. Reactions were read immediately after addition of substrate and following a 2 h incubation at room temperature. Readings were performed on a Pherastar Plus (BMG Labtech). λ Excitation 540 nm; λ Emission 590 nm.
With `N#CN1CCC[C@](F)(C(=O)Nc2cc(-c3cccc(Cl)c3)no2)C1` [Example 76, (R)—N-(3-(3-Chlorophenyl)isoxazol-5-yl)-1-cyano-3-fluoropiperidine-3-carboxamide], the IC50 was below 100 nM. Then `N#CN1CCC[C@](F)(C(=O)Nc2ccc(-c3nccc4cn[nH]c34)cn2)C1` [Example 89, (R)—N-(5-(1H-Pyrazolo[3,4-c]pyridin-7-yl)pyridin-2-yl)-1-cyano-3-fluoropiperidine-3-carboxamide], with below 100 nM; and `N#CN1CCOC(C(=O)Nc2ccc(-c3ccccc3)cn2)C1` (centres unmarked) [Example 12, 4-Cyano-N-(5-phenylpyridin-2-yl)morpholine-2-carboxamide], with 1000 to 10000 nM.

In the case of `CCCOc1cc(NC(=O)C2CCCN(C#N)C2)ccc1-c1ccn[nH]1` (centres unmarked) [Example 36, 1-Cyano-N-(3-propoxy-4-(1H-pyrazol-5-yl)phenyl)piperidine-3-carboxamide], the IC50 lay within 100 to 1000 nM.

With `N#Cc1cccc(-c2cc(NC(=O)C3(F)CCCN(C#N)C3)on2)c1` (centres unmarked) [Example 73, 1-Cyano-N-(3-(3-cyanophenyl)isoxazol-5-yl)-3-fluoropiperidine-3-carboxamide], the IC50 was in the range of 100 to 1000 nM. Consider `N#CN1CCCC(F)(C(=O)Nc2ccc(-c3ccn[nH]3)cn2)C1` (racemic) [Example 49, N-(5-(1H-Pyrazol-5-yl)pyridin-2-yl)-1-cyano-3-fluoropiperidine-3-carboxamide], for which the IC50 lay within 100 to 1000 nM. Consider `N#CN1CCOC(C(=O)Nc2cc(-c3cccc(C(F)(F)F)c3)no2)C1` (racemic) [Example 19, 4-Cyano-N-(3-(3-(trifluoro-methyl)phenyl)isoxazol-5-yl)morpholine-2-carboxamide], for which the IC50 is 100 to 1000 nM.

As for `COc1cccc(-c2cc(NC(=O)[C@H]3CN(C#N)CCO3)ncn2)c1` [Example 22, (R)-4-Cyano-N-(6-(3-methoxy-phenyl)pyrimidin-4-yl)morpholine-2-carboxamide], the IC50 is 1000 to 10000 nM. Next, `N#CN1CCCC(F)(C(=O)Nc2cn(-c3ccccc3)cn2)C1` (centres unmarked) [Example 43, 1-Cyano-3-fluoro-N-(1-phenyl-1H-imidazol-4-yl)piperidine-3-carboxamide]: 100 to 1000 nM.

Take `N#CN1CCO[C@@H](C(=O)Nc2cnc(-c3ccccc3)s2)C1` [Example 28, (R)-4-Cyano-N-(2-phenylthiazol-5-yl)morpholine-2-carboxamide]: the IC50 is 1000 to 10000 nM. Then `N#CN1CCC[C@](F)(C(=O)Nc2cc(-c3cccc(Cl)c3)on2)C1` [Example 74, (R)—N-(5-(3-Chlorophenyl)isoxazol-3-yl)-1-cyano-3-fluoropiperidine-3-carboxamide], with below 100 nM; and `N#CN1CCO[C@@H](C(=O)Nc2ncc(-c3ccccc3)s2)C1` [Example 20, (R)-4-Cyano-N-(5-phenylthiazol-2-yl)morpholine-2-carboxamide], with 100 to 1000 nM; and `N#CN1CCO[C@H](C(=O)Nc2cc(-c3ccccc3)ccn2)C1` [Example 35, (S)-4-Cyano-N-(4-phenylpyridin-2-yl)morpholine-2-carboxamide], with 1000 to 10000 nM. Then `N#Cc1cccc(-c2ccnc(NC(=O)C3(F)CCCN(C#N)C3)c2)c1` (racemic) [Example 47, 1-Cyano-N-(4-(3-cyanophenyl)pyridin-2-yl)-3-fluoropiperidine-3-carboxamide], with 1000 to 10000 nM. Then `N#CN1CCO[C@@H](C(=O)Nc2cc(-c3cccc(Cl)c3)cnn2)C1` [Example 62, (R)—N-(5-(3-Chlorophenyl)pyridazin-3-yl)-4-cyanomorpholine-2-carboxamide], with 100 to 1000 nM. In the case of `N#Cc1cc(-c2ccnc(NC(=O)C3CN(C#N)CCO3)c2)ccn1` (centres unmarked) [Example 18, 4-Cyano-N-(2′-cyano-[4,4′-bipyridin]-2-yl)morpholine-2-carboxamide], the IC50 was in the range of 100 to 1000 nM.

For the compound `N#CN1CCC[C@](F)(C(=O)Nc2cn(-c3cccc(C(F)(F)F)c3)cn2)C1` (stereo in doubt) [Example 80, 1-Cyano-3-fluoro-N-(1-(3-(trifluoromethyl)phenyl)-1H-imidazol-4-yl)piperidine-3-carboxamide], the IC50 lay within 100 to 1000 nM.

Usually IC50 stands for the concentration that inhibits the measured activity by half.
